As usually defined, the pIC50 is the negative decadic logarithm of the IC50, by convention in mol/L. Usually pKi stands for the Ki on a negative log10 scale, so that one unit is a factor of ten.

The target in experiment [1] is Human recombinant full-length GST-tagged PRKD2 (PKD2) (Homo sapiens (Human), UniProt Q9BZL6). Briefly: Biochemical selectivity kinase assay (Z'-LYTE FRET), PRKD2. The conditions noted are these: for pIC50: 25 μM ATP (~Km); for PRKD2 IC50/HPK1 Ki: ratio of the PRKD2 IC50 to the HPK1 Ki. The source says:
(§1) Biochemical Selectivity Kinase Assay.
(§2) The dose response curve was curve fit to model number 205 (sigmoidal dose-response model). A ratio of the PRKD2 IC50 to the HPK1 Ki and a ratio of the RSK3 IC50 to the HPK1 Ki, is provided in the respective columns adjacent to the columns for PRKD2 IC50 and RSK3 IC50.

Experiment [2] concerns Phospho-SLP-76 (Ser376) in Jurkat cells. Briefly: Phospho-SLP-76 (Ser376) HTRF assay in anti-CD3 stimulated Jurkat cells. The experiment is classed as cell-based. The settings on record: Homo sapiens, Jurkat, 30 min pre-treatment, anti-CD3 stimulation 15 min, read-out: pSLP76 IC50. The method, boiled down:
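Jurkat cells pre-treated 30 min with compound (11-point 3-fold series, final 10 μM to 0.1 nM, 0.1% DMSO), then stimulated 15 min at 37° C with 200 μg/mL F(ab)2-complexed anti-CD3 (UCTH1). Lysate phospho-SLP-76 read by HTRF sandwich after overnight RT incubation; IC50 from four-parameter fit.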
In general terms: In TR-FRET formats the signal depends on donor and acceptor labels being close together.

In experiment [3] the target is human full-length autophosphorylated recombinant HPK1 (Homo sapiens (Human), UniProt Q92918). Briefly: HPK1 biochemical enzyme assay (chelation-enhanced fluorescence, CHEF). The settings on record: 0.5 nM HPK1, 45 μM ATP, Morrison fit. The method, boiled down: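 Autophosphorylated full-length human HPK1 from Sf21 cells, His-tag removed by TEV, residual N-terminal Gly-Ser. Activity measured with a C-Sox fluorescent peptide substrate (CHEF); initial velocities followed at λex 360/λem 500 nm, 30 °C for 15 min.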
Sequence of human full-length autophosphorylated recombinant HPK1 (Q92918 other isoform, or with tags, fused parts or gaps): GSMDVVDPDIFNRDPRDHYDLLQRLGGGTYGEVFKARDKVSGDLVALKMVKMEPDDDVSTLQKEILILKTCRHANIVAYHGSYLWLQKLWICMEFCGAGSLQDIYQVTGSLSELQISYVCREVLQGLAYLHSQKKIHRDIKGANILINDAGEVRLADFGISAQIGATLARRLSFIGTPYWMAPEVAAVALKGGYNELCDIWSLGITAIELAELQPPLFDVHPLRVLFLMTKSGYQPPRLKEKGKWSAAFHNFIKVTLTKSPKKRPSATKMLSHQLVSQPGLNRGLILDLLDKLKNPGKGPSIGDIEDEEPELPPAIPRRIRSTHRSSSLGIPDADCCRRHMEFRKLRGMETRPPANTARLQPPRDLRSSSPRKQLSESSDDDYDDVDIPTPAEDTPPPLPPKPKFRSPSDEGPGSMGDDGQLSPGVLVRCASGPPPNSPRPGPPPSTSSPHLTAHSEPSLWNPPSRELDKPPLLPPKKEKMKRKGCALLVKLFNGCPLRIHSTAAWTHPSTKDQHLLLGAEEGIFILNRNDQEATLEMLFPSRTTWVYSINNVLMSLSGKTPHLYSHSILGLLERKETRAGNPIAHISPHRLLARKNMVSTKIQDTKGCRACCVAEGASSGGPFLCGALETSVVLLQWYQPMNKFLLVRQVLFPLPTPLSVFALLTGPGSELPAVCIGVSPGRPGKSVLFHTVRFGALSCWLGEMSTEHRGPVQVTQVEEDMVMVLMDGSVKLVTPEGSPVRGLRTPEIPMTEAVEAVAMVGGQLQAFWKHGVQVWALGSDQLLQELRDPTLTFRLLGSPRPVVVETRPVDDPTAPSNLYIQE

In experiment [4] the target is Human recombinant full-length GST-tagged RPS6KA2 (RSK3) (Homo sapiens (Human), UniProt Q15349). Briefly: Biochemical selectivity kinase assay (Z'-LYTE FRET), RSK3. The conditions noted are these: for pIC50: 10 μM ATP (~Km); for RSK3 IC50/HPK1 Ki: ratio of the RSK3 IC50 to the HPK1 Ki.
Sequence of Human recombinant full-length GST-tagged RPS6KA2 (RSK3) (Q15349 whole entry): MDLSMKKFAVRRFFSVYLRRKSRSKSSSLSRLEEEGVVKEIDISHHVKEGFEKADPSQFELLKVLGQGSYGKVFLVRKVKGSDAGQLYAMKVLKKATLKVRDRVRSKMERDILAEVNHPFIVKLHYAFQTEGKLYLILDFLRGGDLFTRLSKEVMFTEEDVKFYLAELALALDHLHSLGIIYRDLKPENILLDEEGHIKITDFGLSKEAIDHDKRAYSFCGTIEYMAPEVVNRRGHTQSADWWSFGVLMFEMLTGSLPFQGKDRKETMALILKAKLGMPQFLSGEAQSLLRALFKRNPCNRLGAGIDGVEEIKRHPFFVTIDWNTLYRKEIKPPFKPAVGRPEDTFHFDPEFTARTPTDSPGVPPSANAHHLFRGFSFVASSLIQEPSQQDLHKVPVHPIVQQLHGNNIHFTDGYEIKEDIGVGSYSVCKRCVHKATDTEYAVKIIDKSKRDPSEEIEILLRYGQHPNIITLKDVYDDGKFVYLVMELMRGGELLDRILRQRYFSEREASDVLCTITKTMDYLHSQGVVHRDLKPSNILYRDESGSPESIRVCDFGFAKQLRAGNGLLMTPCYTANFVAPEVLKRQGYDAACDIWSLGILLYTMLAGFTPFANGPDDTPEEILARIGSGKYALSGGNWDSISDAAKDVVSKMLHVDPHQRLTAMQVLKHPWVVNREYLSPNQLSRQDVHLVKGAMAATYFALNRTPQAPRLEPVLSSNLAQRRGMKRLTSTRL
From the text: as §1, §2

The structures appear in SMILES notation. pIC50, pKi: −log10 of the molar value.

Sequence of Human recombinant full-length GST-tagged PRKD2 (PKD2) (Q9BZL6 whole entry): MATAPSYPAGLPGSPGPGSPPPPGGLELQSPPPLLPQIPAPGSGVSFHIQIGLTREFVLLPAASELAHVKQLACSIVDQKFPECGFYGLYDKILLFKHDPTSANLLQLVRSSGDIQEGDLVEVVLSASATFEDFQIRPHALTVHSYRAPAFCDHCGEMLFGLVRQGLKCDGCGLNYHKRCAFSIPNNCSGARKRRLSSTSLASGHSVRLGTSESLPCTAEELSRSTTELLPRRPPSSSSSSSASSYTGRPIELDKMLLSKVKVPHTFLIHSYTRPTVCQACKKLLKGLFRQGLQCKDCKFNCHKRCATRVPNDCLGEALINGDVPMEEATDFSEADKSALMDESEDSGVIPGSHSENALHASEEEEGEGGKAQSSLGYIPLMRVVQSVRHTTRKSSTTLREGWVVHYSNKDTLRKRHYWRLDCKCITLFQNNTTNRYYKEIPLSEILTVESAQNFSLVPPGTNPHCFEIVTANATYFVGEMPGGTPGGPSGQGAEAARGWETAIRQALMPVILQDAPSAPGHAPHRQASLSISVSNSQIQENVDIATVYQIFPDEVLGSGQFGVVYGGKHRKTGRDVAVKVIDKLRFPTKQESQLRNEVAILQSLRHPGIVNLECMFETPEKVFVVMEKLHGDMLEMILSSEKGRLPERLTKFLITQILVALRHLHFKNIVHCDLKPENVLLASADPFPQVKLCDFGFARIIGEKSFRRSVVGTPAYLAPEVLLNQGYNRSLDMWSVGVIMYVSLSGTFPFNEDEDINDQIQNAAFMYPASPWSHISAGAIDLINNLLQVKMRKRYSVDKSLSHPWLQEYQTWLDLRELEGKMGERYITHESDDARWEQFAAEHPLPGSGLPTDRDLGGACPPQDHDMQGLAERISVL

With `CC[C@H]1CCc2nnc(-c3cccc(N4Cc5c(cc(N(C)C(C)C)nc5[C@@H](C)N)C4=O)n3)n21` [Example 4, 4-[(1R)-1-aminoethyl]-2-{6-[(5S)-5-ethyl-6,7-dihydro-5H-pyrrolo[2,1-c][1,2,4]triazol-3-yl]pyridin-2-yl}-6-[methyl(propan-2-yl)amino]-2,3-dihydro-1H-pyrrolo[3,4-c]pyridin-1-one], in experiment [1], the pIC50 was 6.66 and the “PRKD2 IC50/HPK1 Ki” value is on record as greater than 4304. The pIC50 in experiment [2] was 7.44. Besides, the pKi in experiment [3] is greater than 10.30. Further, in experiment [4], the pIC50 is 7.59 and the “RSK3 IC50/HPK1 Ki” value was greater than 520.

With `CC[C@@H](N)c1nc(N2CCC[C@H]2C)cc2c1CN(c1cccc(-c3nnc4n3[C@@H](C)CC4)n1)C2=O` [Example 1, 4-[(1R)-1-aminopropyl]-2-{6-[(5S)-5-methyl-6,7-dihydro-5H-pyrrolo[2,1-c][1,2,4]triazol-3-yl]pyridin-2-yl}-6-[(2R)-2-methylpyrrolidin-1-yl]-2,3-dihydro-1H-pyrrolo[3,4-c]pyridin-1-one], the pIC50 in experiment [1] is 6.81; in experiment [4], 7.33.

As for `CCCn1cnnc1-c1cccc(N2Cc3c(cc(N(C)C)nc3CNC)C2=O)n1` [Example 300, 6-(dimethylamino)-4-[(methylamino)methyl]-2-[6-(4-propyl-4H-1,2,4-triazol-3-yl)pyridin-2-yl]-2,3-dihydro-1H-pyrrolo[3,4-c]pyridin-1-one], in experiment [1], the pIC50 was 8.71 and the “PRKD2 IC50/HPK1 Ki” value was 14. Also, in experiment [2], the pIC50 is 7.03. Further, in experiment [4], the pIC50 was 8.20 and the “RSK3 IC50/HPK1 Ki” value was 23.

As for `CC[C@H](N)c1nc(C2(C)CC2)cc2c1CN(c1cccc(-c3nncn3CC)n1)C2=O` (single isomer, unassigned) [Example 120, 4-[(1ξ)-1-aminopropyl]-2-[6-(4-ethyl-4H-1,2,4-triazol-3-yl)pyridin-2-yl]-6-(1-methylcyclo-propyl)-2,3-dihydro-1H-pyrrolo[3,4-c]pyridin-1-one], the pIC50 in experiment [2] was 6.27. For the same compound, the negative logarithm of the Ki (pKi) in experiment [3] was 8.53.

On to `CCCn1cnnc1-c1cccc(N2Cc3c(cc(C4(C)CC4)nc3[C@H](C)N)C2=O)n1` (single isomer, unassigned) [Example 118, 4-[(1ξ)-1-aminoethyl]-6-(1-methyl-cyclopropyl)-2-[6-(4-propyl-4H-1,2,4-triazol-3-yl)pyridin-2-yl]-2,3-dihydro-1H-pyrrolo[3,4-c]pyridin-1-one], for which the pIC50 in experiment [2] was 6.49. For the same compound, the pKi in experiment [3] was 8.82.

`CCn1cnnc1-c1cccc(N2Cc3c(cc(N(C)C)nc3C(C)(C)N)C2=O)n1` [Example 132, 4-(2-aminopropan-2-yl)-6-(dimethyl-amino)-2-[6-(4-ethyl-4H-1,2,4-triazol-3-yl)pyridin-2-yl]-2,3-dihydro-1H-pyrrolo[3,4-c]pyridin-1-one]: the pIC50 in experiment [2] is 6.83. Moreover, the pKi in experiment [3] was 9.42.

In the case of `CCn1c(C)nnc1-c1cccc(N2Cc3c(cc(N4CCC[C@H]4C)nc3[C@H](C)NC)C2=O)n1` (single isomer, unassigned) [Example 108], in experiment [2], the pIC50 is 7.08. For the same compound, the pKi in experiment [3] was 9.21.

Take `CCn1c(C)nnc1-c1cccc(N2Cc3c(cc(N4CCC[C@H]4C)nc3C(C)(C)N)C2=O)n1` [Example 134, 4-(2-aminopropan-2-yl)-2-[6-(4-ethyl-5-methyl-4H-1,2,4-triazol-3-yl)pyridin-2-yl]-6-[(2R)-2-methylpyrroli-din-1-yl]-2,3-dihydro-1H-pyrrolo[3,4-c]pyridin-1-one]: in experiment [2], the pIC50 is 6.97. For the same compound, the pKi in experiment [3] is 9.66.

`CC(C)N(C)c1cc2c(c([C@@H](C)N)n1)CN(c1cccc(-c3nnc4n3[C@@H](CF)CC4)n1)C2=O` [Example 29, 4-[(1R)-1-aminoethyl]-2-{6-[(5R)-5-(fluoromethyl)-6,7-dihydro-5H-pyrrolo[2,1-c][1,2,4]triazol-3-yl]pyridin-2-yl}-6-[methyl(propan-2-yl)amino]-2,3-dihydro-1H-pyrrolo[3,4-c]pyridin-1-one]: the pIC50 in experiment [2] is 7.14. Besides, in experiment [3], the pKi is 9.70.

In the case of `CC[C@@H](N)c1nc(N2CCC[C@H]2C)cc2c1CN(c1cccc(-c3nnc4n3[C@@H](CO)CC4)n1)C2=O` [Example 31, 4-[(1R)-1-aminopropyl]-2-{6-[(5R)-5-(hydroxy-methyl)-6,7-dihydro-5H-pyrrolo[2,1-c][1,2,4]triazol-3-yl]pyridin-2-yl}-6-[(2R)-2-methylpyrroli-din-1-yl]-2,3-dihydro-1H-pyrrolo[3,4-c]pyridin-1-one], the pIC50 in experiment [2] is 7.38. Also, the pKi in experiment [3] was greater than 10.30.

For the compound `CNCc1nc(N(C)C(C)C)cc2c1CN(c1cccc(-c3nnc4n3[C@@H](C)CC4)n1)C2=O` [Example 210, 4-[(methyl-amino)methyl]-2-{6-[(5S)-5-methyl-6,7-dihydro-5H-pyrrolo[2,1-c] [1,2,4]triazol-3-yl]pyridin-2-yl}-6-[methyl (propan-2-yl)amino]-2,3-dihydro-1H-pyrrolo[3,4-c] pyridin-1-one], the pIC50 in experiment [2] is 7.33. The negative logarithm of the Ki (pKi) in experiment [3] was greater than 10.30.

Turning to `CNCc1nc(N(C)C(C)C)cc2c1CN(c1cccc(-c3nnc4n3[C@@H](C)C[C@@H]4C)n1)C2=O` [Example 211, 2-{6-[(5S,7S)-5,7-dimethyl-6,7-dihydro-5H-pyrrolo[2,1-c] [1,2,4]triazol-3-yl]pyridin-2-yl}-4-[(methyl-amino)methyl]-6-[methyl (propan-2-yl)amino]-2,3-dihydro-1H-pyrrolo[3,4-c] pyridin-1-one], the pIC50 in experiment [2] is 7.11. Moreover, the pKi in experiment [3] is greater than 10.30.

Turning to `CCn1cnnc1-c1cccc(N2Cc3c(cc(C4(C)CC4)nc3C(C)(C)N)C2=O)n1` [Example 114, 4-(2-aminopropan-2-yl)-2-[6-(4-ethyl-4H-1,2,4-triazol-3-yl)pyridin-2-yl]-6-(1-methylcyclo-propyl)-2,3-dihydro-1H-pyrrolo[3,4-c]pyridin-1-one], the pIC50 in experiment [2] was 6.83. In addition, the pKi in experiment [3] is 9.39.

Regarding `CCCn1cnnc1-c1cccc(N2Cc3c(cc(C4(C)CC4)nc3[C@@H](N)CC)C2=O)n1` (single isomer, unassigned) [Example 122, 4-[(1ξ)-1-aminopropyl]-6-(1-methylcyclo-propyl)-2-[6-(4-propyl-4H-1,2,4-triazol-3-yl)pyridin-2-yl]-2,3-dihydro-1H-pyrrolo[3,4-c]pyridin-1-one], the negative logarithm of the IC50 (pIC50) in experiment [2] is 6.45. The pKi in experiment [3] is 9.11.

On to `CCCn1cnnc1-c1cccc(N2Cc3c(cc(C4(C)CC4)nc3[C@H](N)CC)C2=O)n1` (single isomer, unassigned) [Example 121, 4-[(1ξ)-1-aminopropyl]-6-(1-methylcyclo-propyl)-2-[6-(4-propyl-4H-1,2,4-triazol-3-yl)pyridin-2-yl]-2,3-dihydro-1H-pyrrolo[3,4-c]pyridin-1-one], for which, in experiment [2], the pIC50 is 6.26. In addition, in experiment [3], the pKi was 8.39.

In the case of `CCn1c(C)nnc1-c1cccc(N2Cc3c(cc(N4CCC[C@H]4C)nc3[C@@H](C)N)C2=O)n1` (single isomer, unassigned) [Example 154], the negative logarithm of the IC50 (pIC50) in experiment [2] is 6.92. Moreover, the negative logarithm of the Ki (pKi) in experiment [3] is 9.60.

For `CCN(C)c1cc2c(c([C@H](C)N)n1)CN(c1cccc(-c3nncn3CC)n1)C2=O` (single isomer, unassigned) [Example 130, 4-[(1ξ)-1-aminoethyl]-6-[ethyl(methyl)amino]-2-[6-(4-ethyl-4H-1,2,4-triazol-3-yl)pyridin-2-yl]-2,3-dihydro-1H-pyrrolo[3,4-c]pyridin-1-one], in experiment [2], the pIC50 is 7.11. Moreover, the pKi in experiment [3] was 9.40.
